Measured values reported in ChEMBL document CHEMBL5137011, “Semisynthetic pleuromutilin antimicrobials with therapeutic potential against methicillin-resistant Staphylococcus aureus by targeting 50S ribosomal subunit” (Eur J Med Chem, 2022).
≈ marks a conversion by molar mass, not a printed value.

How the values were obtained:
RAW264.7 = test: Cytotoxicity against mouse RAW264.7 cells assessed as reduction in cell viability at 8 ug/ml incubated for 16 hrs by MTT assay; type: toxicity, cell-based; conditions: raw264.7, 16 h, dose 8 µg/ml
Staphylococcus aureus [1] = test: Antibacterial activity against methicillin-resistant Staphylococcus aureus ATCC 43300 assessed as log reduction in colony forming unit at 4 times MIC measured after 3 hrs by time kill assay; type: functional
[2] = target: Bacterial 70S ribosome (Bacteria) (UniProt P0A7V0+P60723+P0AG67+P0A7R5+P0A7R9+P0A7S3+P0A7S9+P0AG59+P0ADZ4+P0A7T3+P0AG63+P0A7T7+P0A7U3+P0A7U7+P68679+P0A7V3+P0A7V8+P0A7W1+P02358+P02359+P0A7W7+P0A7X3+P0A7J3+P0A7J7+P0AA10+P0ADY3+P02413+P0ADY7+P0AG44+P0C018+P0A7K6+P0A7L0+P0A7L3+P0AG48+P61175+P0ADZ0+P60624+P68919+P0A7L8+P0A7M2+P0A7M6+P60422+P0AG51+P0A7N1+P0A7M9+P0A7N4+P0A7N9+P0A7P5+P0A7Q1+Q2EEQ2+P0A7Q6+P60438+P62399+P0AG55+P0A7K2); test: Binding affinity to Staphylococcus aureus ATCC 43300 50S ribosomal subunit assessed as association rate constant by surface plasmon resonance analysis; type: subcellular
Staphylococcus aureus [3] = test: Antibacterial activity against methicillin-resistant Staphylococcus aureus ATCC 43300 assessed as inhibition of bacterial growth incubated for 16 hrs by CLSI based broth microdilution method; type: functional
Bacterial 70S ribosome = test: Binding affinity to Staphylococcus aureus ATCC 43300 50S ribosomal subunit assessed as equilibrium dissociation constant by surface plasmon resonance analysis; type: subcellular
Staphylococcus aureus [4] = test: Antibacterial activity against methicillin-resistant Staphylococcus aureus ATCC 43300 assessed as log reduction in colony forming unit at 4 times MIC measured after 24 hrs by time kill assay; type: functional
Staphylococcus aureus [5] = test: Antibacterial activity against Staphylococcus aureus 144 assessed as inhibition of bacterial growth incubated for 16 hrs by CLSI based broth microdilution method; type: functional
Staphylococcus aureus [6] = test: Antibacterial activity against Staphylococcus aureus AD3 assessed as inhibition of bacterial growth incubated for 16 hrs by CLSI based broth microdilution method; type: functional
Staphylococcus aureus [7] = test: Antibacterial activity against methicillin-resistant Staphylococcus aureus ATCC 43300 infected in ICR/Swiss mouse […] thigh infection model assessed as log reduction in bacterial load in thigh at 20 mg/kg, iv administered as bolus injection measured after 24 hrs; type: functional
Staphylococcus aureus [8] = test: Antibacterial activity against Staphylococcus aureus SA17 assessed as inhibition of bacterial growth incubated for 16 hrs by CLSI based broth microdilution method; type: functional
Staphylococcus aureus [9] = test: Antibacterial activity against Staphylococcus aureus ATCC 29213 assessed as inhibition of bacterial growth incubated for 16 hrs by CLSI based broth microdilution method; type: functional
16HBE14o- [10] = test: Cytotoxicity against human 16HBE14o- cells assessed as reduction in cell viability at 8 ug/ml incubated for 16 hrs by MTT assay; type: toxicity, cell-based; conditions: dose 8 µg/ml
16HBE14o- [11] = test: Cytotoxicity against human 16HBE14o- cells assessed as reduction in cell viability at 8 ug/ml incubated for 16 hrs by MTT assay relative to control; type: toxicity, cell-based; conditions: at 8 µg/mL
[12] = MRT in mouse at 10 mg/kg, iv administered as bolus infection measured upto 24 hrs by LC-MS analysis; type: ADME, organism-based; conditions: in vivo
[13] = AUC(0 to t) in mouse at 10 mg/kg, iv administered as bolus injection measured upto 24 hrs by LC-MS analysis; type: ADME, organism-based; set-up: dose 10 mg/kg, time < 24 hrs, route iv; conditions: in vivo
[14] = Clearance in mouse assessed as hepatic blood flow at 10 mg/kg, iv administered as bolus infection measured upto 24 hrs by LC-MS analysis; type: ADME, organism-based; conditions: in vivo
[15] = Half life in mouse at 10 mg/kg, iv administered as bolus infection measured upto 24 hrs by LC-MS analysis; type: ADME, organism-based; conditions: in vivo
[16] = Clearance in mouse at 10 mg/kg, iv administered as bolus infection measured upto 24 hrs by LC-MS analysis; type: ADME, organism-based; conditions: in vivo
Staphylococcus aureus [17] = test: Antibacterial activity against methicillin-resistant Staphylococcus aureus ATCC 43300 infected in ICR/Swiss mouse systemic infection model assessed as survival rate at 30 mg/kg, iv administered as bolus injection 1 hr post infection measured twice daily after 3 to 7 days; type: functional; conditions: time 3-7 day
[18] = AUC(0 to infinity) in mouse at 10 mg/kg, iv administered as bolus injection measured upto 24 hrs by LC-MS analysis; type: ADME, organism-based; set-up: time < 24 hrs, dose 10 mg/kg, route iv; conditions: in vivo

With `C=C[C@]1(C)C[C@@H](OC(=O)CSc2nnc(-c3ccccc3OC)[nH]2)[C@]2(C)[C@H](C)CC[C@]3(CCC(=O)[C@H]32)[C@@H](C)[C@@H]1O` the Activity (RAW264.7) was “Non-Toxic”, the Activity (Staphylococcus aureus [1]) was -1.53 log10CFU/ml and the Ka [2] was 4.99 10^2/Ms. For the same molecule, the MIC (Staphylococcus aureus [3]) was 0.0625 µg/mL (≈ 0.11 µM), the Kd (Bacterial 70S ribosome) was 121 µM and the Activity (Staphylococcus aureus [4]) was -7.1 log10CFU/ml. For the same molecule, the MIC (Staphylococcus aureus [5]) was 0.125 µg/mL (≈ 0.22 µM), the MIC (Staphylococcus aureus [6]) was 0.0625 µg/mL (≈ 0.11 µM) and the Activity (Staphylococcus aureus [7]) was -1.27 log10CFU/ml. The MIC (Staphylococcus aureus [8]) was 0.125 µg/mL (≈ 0.22 µM), the MIC (Staphylococcus aureus [9]) was 0.125 µg/mL (≈ 0.22 µM) and the Activity (16HBE14o- [10]) was “Non-Toxic”.

In the case of `C=C[C@]1(C)C[C@@H](OC(=O)CSc2nnc(-c3cccc(C(F)(F)F)c3)[nH]2)[C@]2(C)[C@H](C)CC[C@]3(CCC(=O)[C@H]32)[C@@H](C)[C@@H]1O`, the Activity (16HBE14o- [11]) is reported as > 50%, the Activity (RAW264.7) is reported as “Non-Toxic” and the MIC (Staphylococcus aureus [3]) is reported as 1 µg/mL (≈ 1.65 µM). The MIC (Staphylococcus aureus [5]) was > 32 µg/mL, the MIC (Staphylococcus aureus [6]) was 0.25 µg/mL (≈ 0.413 µM) and the MIC (Staphylococcus aureus [8]) was > 32 µg/mL. For the same molecule, the MIC (Staphylococcus aureus [9]) was 2 µg/mL (≈ 3.3 µM).

With `C=C[C@]1(C)C[C@@H](OC(=O)CSc2nnc(-c3ccc(OC)cc3)[nH]2)[C@]2(C)[C@H](C)CC[C@]3(CCC(=O)[C@H]32)[C@@H](C)[C@@H]1O` the Activity (RAW264.7) was “Non-Toxic”, the MIC (Staphylococcus aureus [3]) was 0.125 µg/mL (≈ 0.22 µM) and the MIC (Staphylococcus aureus [5]) was 1 µg/mL (≈ 1.76 µM). It also gave an MIC (Staphylococcus aureus [6]) of 0.0625 µg/mL (≈ 0.11 µM), an MIC (Staphylococcus aureus [8]) of 0.5 µg/mL (≈ 0.881 µM) and an MIC (Staphylococcus aureus [9]) of 0.25 µg/mL (≈ 0.44 µM). For the same molecule, the Activity (16HBE14o- [10]) was “Non-Toxic”.

With `C=C[C@]1(C)C[C@@H](OC(=O)CSc2nnc(-c3ccc(C(F)(F)F)cc3)[nH]2)[C@]2(C)[C@H](C)CC[C@]3(CCC(=O)[C@H]32)[C@@H](C)[C@@H]1O` the Activity (16HBE14o- [11]) was > 50%, the Activity (RAW264.7) was “Non-Toxic” and the MIC (Staphylococcus aureus [3]) was 0.5 µg/mL (≈ 0.825 µM). The MIC (Staphylococcus aureus [5]) was > 32 µg/mL, the MIC (Staphylococcus aureus [6]) was 0.25 µg/mL (≈ 0.413 µM) and the MIC (Staphylococcus aureus [8]) was > 32 µg/mL. It also gave an MIC (Staphylococcus aureus [9]) of 2 µg/mL (≈ 3.3 µM).

For `C=C[C@]1(C)C[C@@H](OC(=O)CSc2nnc(-c3ccc(F)cc3)[nH]2)[C@]2(C)[C@H](C)CC[C@]3(CCC(=O)[C@H]32)[C@@H](C)[C@@H]1O`, the Activity (RAW264.7) was “Non-Toxic”, the MIC (Staphylococcus aureus [3]) was 0.125 µg/mL (≈ 0.225 µM) and the MIC (Staphylococcus aureus [5]) was 1 µg/mL (≈ 1.8 µM). It also gave an MIC (Staphylococcus aureus [6]) of 0.0625 µg/mL (≈ 0.112 µM), an MIC (Staphylococcus aureus [8]) of 1 µg/mL (≈ 1.8 µM) and an MIC (Staphylococcus aureus [9]) of 0.125 µg/mL (≈ 0.225 µM). For the same molecule, the Activity (16HBE14o- [10]) was “Non-Toxic”.

In the case of `C=C[C@]1(C)C[C@@H](OC(=O)CSc2nnc(-c3ccccc3F)[nH]2)[C@]2(C)[C@H](C)CC[C@]3(CCC(=O)[C@H]32)[C@@H](C)[C@@H]1O`, the MRT [12] is reported as 93.6 min, the Activity (RAW264.7) is reported as “Non-Toxic” and the Activity (Staphylococcus aureus [1]) is reported as -1.66 log10CFU/ml. For the same molecule, the AUC(0-t) at 24 h [13] was 1830 ng·h/mL, the Ka [2] was 1.04 10^3/M.s and the QH [14] was 90 mL/min/kg. The t1/2 [15] was 22.2 min, the MIC (Staphylococcus aureus [3]) was 0.0625 µg/mL (≈ 0.112 µM) and the Kd (Bacterial 70S ribosome) was 1.95 µM. The clearance [16] was 90.5 mL/min/kg, the Activity (Staphylococcus aureus [4]) was -7.7 log10CFU/ml and the MIC (Staphylococcus aureus [5]) was 0.25 µg/mL (≈ 0.45 µM). For the same molecule, the survival at 30 mg/kg (Staphylococcus aureus [17]) was 50%, the MIC (Staphylococcus aureus [6]) was 0.03 µg/mL (≈ 0.054 µM) and the Activity (Staphylococcus aureus [7]) was -1.53 log10CFU/ml. For the same molecule, the AUC(0-inf) [18] was 1840 ng·h/mL, the MIC (Staphylococcus aureus [8]) was 0.125 µg/mL (≈ 0.225 µM) and the MIC (Staphylococcus aureus [9]) was 0.125 µg/mL (≈ 0.225 µM). For the same molecule, the Activity (16HBE14o- [10]) was “Non-Toxic”.

With `C=C[C@]1(C)C[C@@H](OC(=O)CSc2nnc(-c3cccc([N+](=O)[O-])c3)[nH]2)[C@]2(C)[C@H](C)CC[C@]3(CCC(=O)[C@H]32)[C@@H](C)[C@@H]1O` the Activity (RAW264.7) was “Non-Toxic”, the MIC (Staphylococcus aureus [3]) was 0.125 µg/mL (≈ 0.215 µM) and the MIC (Staphylococcus aureus [5]) was 2 µg/mL (≈ 3.43 µM). For the same molecule, the MIC (Staphylococcus aureus [6]) was 0.0625 µg/mL (≈ 0.107 µM), the MIC (Staphylococcus aureus [8]) was 0.5 µg/mL (≈ 0.858 µM) and the MIC (Staphylococcus aureus [9]) was 0.25 µg/mL (≈ 0.429 µM). For the same molecule, the Activity (16HBE14o- [10]) was “Non-Toxic”.

With `C=C[C@]1(C)C[C@@H](OC(=O)CSc2nnc(-c3cccc(OC)c3)[nH]2)[C@]2(C)[C@H](C)CC[C@]3(CCC(=O)[C@H]32)[C@@H](C)[C@@H]1O` the Activity (RAW264.7) was “Non-Toxic”, the MIC (Staphylococcus aureus [3]) was 0.125 µg/mL (≈ 0.22 µM) and the MIC (Staphylococcus aureus [5]) was 0.5 µg/mL (≈ 0.881 µM). It also gave an MIC (Staphylococcus aureus [6]) of 0.0625 µg/mL (≈ 0.11 µM), an MIC (Staphylococcus aureus [8]) of 0.5 µg/mL (≈ 0.881 µM) and an MIC (Staphylococcus aureus [9]) of 0.125 µg/mL (≈ 0.22 µM). For the same molecule, the Activity (16HBE14o- [10]) was “Non-Toxic”.

With `C=C[C@]1(C)C[C@@H](OC(=O)CSc2nnc(-c3ccccc3C)[nH]2)[C@]2(C)[C@H](C)CC[C@]3(CCC(=O)[C@H]32)[C@@H](C)[C@@H]1O` the Activity (RAW264.7) was “Non-Toxic”, the MIC (Staphylococcus aureus [3]) was 0.0625 µg/mL (≈ 0.113 µM) and the MIC (Staphylococcus aureus [5]) was 1 µg/mL (≈ 1.81 µM). For the same molecule, the MIC (Staphylococcus aureus [6]) was 0.125 µg/mL (≈ 0.227 µM), the MIC (Staphylococcus aureus [8]) was 0.5 µg/mL (≈ 0.906 µM) and the MIC (Staphylococcus aureus [9]) was 0.25 µg/mL (≈ 0.453 µM). For the same molecule, the Activity (16HBE14o- [10]) was “Non-Toxic”.

For `C=C[C@]1(C)C[C@@H](OC(=O)CSc2nnc(-c3ccc(C)cc3)[nH]2)[C@]2(C)[C@H](C)CC[C@]3(CCC(=O)[C@H]32)[C@@H](C)[C@@H]1O`, the Activity (RAW264.7) was “Non-Toxic”, the MIC (Staphylococcus aureus [3]) was 0.125 µg/mL (≈ 0.227 µM) and the MIC (Staphylococcus aureus [5]) was 1 µg/mL (≈ 1.81 µM). It also gave an MIC (Staphylococcus aureus [6]) of 0.0625 µg/mL (≈ 0.113 µM), an MIC (Staphylococcus aureus [8]) of 0.5 µg/mL (≈ 0.906 µM) and an MIC (Staphylococcus aureus [9]) of 0.125 µg/mL (≈ 0.227 µM). The Activity (16HBE14o- [10]) was “Non-Toxic”.
